Test results reported in US20200308550A1, “TUMOR ORGANOID MODEL” (IMBA - INSTITUT FÜR MOLEKULARE BIOTECHNOLOGIE GMBH, priority 2017, published 2020).

tested on: GBM-1 neoplastic organoids including firefly luciferase; test: Luciferase assay-based drug testing on neoplastic organoids; assay type: cell-based, human; details: 1 μM, forty days after drug treatment, vs DMSO
Experimental: FIG. 13. […] Normalized luciferase activity was presented. Statistical analysis of quantifications was performed using one-way ANOVA with Dunnett's test. **, p<0.01.
For drug testing, neoplastic organoids were first grown for 2 months, followed by drug treatment for 40 days. […] After drug treatment, neoplastic organoids were trypsinized for single cell preparation, followed by FACS sorting analysis. Total cell numbers were counted to evaluate the cytotoxicity of the drugs.
In an effort toward adapting this method for large scale screening, we modified the neoplastic cerebral organoid system to include firefly luciferase for measurement of tumor size (FIG. 13a).

Structure (SMILES) | relative firefly luciferase activity (tumor size)
C#Cc1cccc(Nc2ncnc3cc(OCCOC)c(OCCOC)cc23)c1 [Erlotinib] | significantly reduced firefly luciferase activity
CCOc1cc2ncc(C#N)c(Nc3ccc(F)c(Cl)c3)c2cc1NC(=O)/C=C/CN(C)C [Pelitinib] | only non-significant effects
C=CC(=O)Nc1cc2c(Nc3ccc(F)c(Cl)c3)ncnc2cc1OCCCN1CCOCC1 [Canertibib, Canertinib] | only non-significant effects
COc1cc2ncnc(Nc3ccc(F)c(Cl)c3)c2cc1OCCCN1CCOCC1 [Gefitinib] | only non-significant effects
